Where a name gives a salt, the structure may show the parent alone. Read-outs that look alike come from different tables or passages of the source.
Key:
[1] = intravenous infusion; cited from earlier work
[2] = test system: AHF patients with systolic blood pressure (SBP) of 90-150 mmHg; settings: 0.5, 1.0, and 1.5 μg/kg/min for 6 h; cited from earlier work
[3] = test system: patients hospitalized for acute heart failure (AHF); parameters: species or system human; settings: in vivo
Description: (§1) The primary efficacy endpoint was the change from baseline to 24 h after the start of the infusion in the E/e ratio assessed by tissue Doppler echocardiography. Secondary endpoints included the change from baseline to 24 h of other echocardiography parameters: LVEF, left ventricular end-systolic and end-diastolic volumes, stroke volume index, E, A, E/A ratio, and S′: changes in dyspnoea by visual analogue scale (VAS) and in NT-proBNP from baseline to 24 h: proportion of patients with hospital readmissions or emergency visits for cardiovascular reasons by day 30; proportion of patients with episodes of in-hospital worsening heart failure to day 4, and length of stay. In-hospital worsening heart failure was defined by the need to increase the dose or reinitiate intravenous therapy with diuretics and/or other inotropic agents to day 4. Safety endpoints were assessed throughout the study and included: incidence of adverse events (AEs): change in vital signs and in 12-lead electrocardiographic (ECG) parameters: incidence of clinically or haemodynamically significant episodes of supraventricular or ventricular arrhythmias detected by continuous ECG monitoring: standard laboratory parameters: renal function: cardiac troponin T (cTnT): incidence of cTnT elevations, and mortality at day 30. […]

[4] = test system: dogs with chronic ischemic heart failure; settings: cited from earlier work
[5] = test system: patients hospitalized for acute heart failure (AHF); parameters: species or system human; settings: in vivo; remark: listed apart in the source
Description: as §1, with “In-hospital worsening heart failure was defined by the need to increase the dose or reinitiate intravenous therapy with diuretics and/or other inotropic agents to day 4.” left out
The study design included a 24 h screening period, a 24 h study drug infusion phase (day 1), a post-treatment phase (days 2-4), and a follow-up visit at day 30 (FIG. 5). […] AEs were monitored throughout the duration of the study.

[6] = test system: patients hospitalized for acute heart failure (AHF); experiment: Self-reported dyspnoea by visual analogue scale (VAS); assay type: in vivo, human
Description: (§2) The primary efficacy endpoint was the change from baseline to 24 h after the start of the infusion in the E/e ratio assessed by tissue Doppler echocardiography. Secondary endpoints included the change from baseline to 24 h of other echocardiography parameters: LVEF, left ventricular end-systolic and end-diastolic volumes, stroke volume index, E, A, E/A ratio, and S′: changes in dyspnoea by visual analogue scale (VAS) and in NT-proBNP from baseline to 24 h: proportion of patients with hospital readmissions or emergency visits for cardiovascular reasons by day 30; proportion of patients with episodes of in-hospital worsening heart failure to day 4, and length of stay. In-hospital worsening heart failure was defined by the need to increase the dose or reinitiate intravenous therapy with diuretics and/or other inotropic agents to day 4. Safety endpoints were assessed throughout the study and included: incidence of adverse events (AEs): change in vital signs and in 12-lead electrocardiographic (ECG) parameters: incidence of clinically or haemodynamically significant episodes of supraventricular or ventricular arrhythmias detected by continuous ECG monitoring: standard laboratory parameters: renal function: cardiac troponin T (cTnT): incidence of cTnT elevations, and mortality at day 30. Elevations in cTnT were considered significant if they were >50% or >20% from baseline values, for patients with cTnT below or above the 99% upper reference limit at baseline, respectively.
(§3) The study design included a 24 h screening period, a 24 h study drug infusion phase (day 1), a post-treatment phase (days 2-4), and a follow-up visit at day 30 (FIG. 5). Patients could be enrolled at any time after admission. The use of oral medications was permitted during the study with the exception of digoxin. Intravenous diuretics were permitted during the treatment period at stable doses, unless changes were required due to clinically relevant variations of the patient's condition. If treatment with an inotrope was clinically necessary during the infusion period, the investigational product was discontinued. Echocardiography was performed according to international standards at screening, baseline (just before starting study drug infusion), 6, 24 h (just before infusion end), and 48 h after infusion start. Echocardiographic measurements at baseline, 6, 24, and 48 h were evaluated in a blinded fashion by a CoreLab located at the University and Civil Hospital of Brescia, Italy. E/e′ ratio was calculated as the ratio between the peak early diastolic mitral flow velocity (E wave) and the mean of the annular lateral (e′ lateral) and septal (e′ septal) velocities, according to standard guidelines.^20 Intraobserver and interobserver variability in E/e′ measurement was tested on the 15% of the recordings and is shown in FIG. 6. Self-reported dyspnoea was assessed using a 100 mm VAS, with zero representing the worst level of dyspnoea and […] the best breathing condition. Twenty-four hour ECG monitoring was performed using a three-lead device (Mortara industries, Milwaukee, WI, USA) during the day of screening, the infusion period, and the day after (the latter was optional). Analysis was conducted by a blinded CoreLab (ICS Maugeri, Italy). Serial measurements of NT-proBNP throughout the study were analyzed by a central laboratory (Elecsys® proBNP II, Roche®, Basel, Switzerland). Samples for cTnT were taken at baseline, 3, 6, 12, 24, 48, and 72 h and on day 30, and were analyzed by a core laboratory (Elecsys® high-sensitivity assay, Roche®, Basel, Switzerland). AEs were monitored throughout the duration of the study.
The study was designed as a mechanistic and safety study to assess the effects of a 24 h istaroxime infusion in patients hospitalized for AHF. […]

[7] = test system: patients hospitalized for acute heart failure (AHF); experiment: Clinical secondary endpoints: in-hospital worsening heart failure to day 4, readmissions/ED visits to day 30, length of stay; assay type: in vivo, human
Description: as §2
The study was designed as a mechanistic and safety study to assess the effects of a 24 h istaroxime infusion in patients hospitalized for AHF. Based on the changes observed in the HORIZON-HF trial, we assumed that a sample size of at least 20 patients in the placebo group in each cohort with 2:1 randomization to istaroxime would provide sufficient power to assess the effect of istaroxime on the main haemodynamic parameters. Analyses were conducted using a pre-specified modified intention-to-treat (mITT) protocol, including all randomized patients in whom study drug infusion had been initiated and with at least […] available evaluation of efficacy after the baseline. Biomarker and eGFR values were analyzed using medians and inner/outer quartiles, and active treatment was compared to placebo using the Wilcoxon rank-sum test. Dyspnoea scores by VAS were analyzed using mixed model regression with treatment, center, time point, gender, baseline cTnT, presence of atrial fibrillation, treatment by time point interaction, baseline value, and baseline value by time point interaction in the model. Echocardiographic parameters were compared between treatment groups using linear regression with treatment in the model. Categorical variables were summarized as frequency and percent and compared between treatment groups using the Cochran-Mantel-Haenszel test, controlling for study site. AEs were recorded for all enrolled patients and were summarized as AEs, serious AEs (SAEs), AEs leading to discontinuation, and SAEs leading to death. All analyses were conducted using the SAS® System for Windows™, versions 9.1.3 and 9.4.

[8] = test system: patients hospitalized for acute heart failure (AHF); parameters: species or system human; settings: in vivo; remark: listed apart in the source
Description: as §1, with “In-hospital worsening heart failure was defined by the need to increase the dose or reinitiate intravenous therapy with diuretics and/or other inotropic agents to day 4.” left out
The study design included a 24 h screening period, a 24 h study drug infusion phase (day 1), a post-treatment phase (days 2-4), and a follow-up visit at day 30 (FIG. 5). […] AEs were monitored throughout the duration of the study. […]

[9] = test system: patients hospitalized for acute heart failure (AHF); settings: intention-to-treat analysis, Carubelli et al., cited from earlier work
[10] = test system: patients hospitalized for acute heart failure (AHF); experiment: Adverse events, serious adverse events, laboratory safety and mortality to day 30; assay type: in vivo, human
Description: as §2
as §3, with “Twenty-four hour ECG monitoring was performed using a three-lead device (Mortara industries, Milwaukee, WI, USA) during the day of screening, the infusion period, and the day after (the latter was optional). Analysis was conducted by a blinded CoreLab (ICS Maugeri, Italy).” left out, “study. […]” for “study.”

[11] = istaroxime 1.0 μg/Kg/min (n = 40), 30-day follow-up period

In the case of `C[C@]12CCC(=NOCCN)C[C@@H]1C(=O)C[C@@H]1[C@@H]2CC[C@]2(C)C(=O)CC[C@@H]12` [Istaroxime, (E,Z)-3-((2-aminoethoxy)imino)androstane-6,17-dione hydrochloride], the “half-time (washout after infusion termination)” value [1] is listed as 60 min, the cardiac index [2] is listed as “increased only at the highest dose” and the “lusitropic effect assessed by increased mitral deceleration time” value [2] is listed as “occurred only at the highest dose”. The “Renal function measured by eGFR” value [3] was “generally increased”, the “myocardial relaxation (e′ diastolic velocity, tissue Doppler)” value ([4]; compared to dobutamine) was “improved myocardial relaxation” and the peak heart rate ([4]; compared with dobutamine) was “significantly lower”. The “clinically significant arrhythmias, 24 h Holter monitoring” value [5] was “no differences”, the “Dyspnoea VAS score, mean change from baseline” value (“Dyspnoea VAS score, mean change” below) ([6]; 0.5 μg/Kg/min, 3 hours) was 4.113 and the “Dyspnoea VAS score, mean change” value ([6]; 0.5 μg/Kg/min, 6 hours) was 6.582. The “Dyspnoea VAS score, mean change” value ([6]; 0.5 μg/Kg/min, 12 hours) was 6.772, the “Dyspnoea VAS score, mean change” value ([6]; 0.5 μg/Kg/min, 24 hours) was 9.276 and the “Dyspnoea VAS score, mean change” value ([6]; 0.5 μg/Kg/min, 48 hours) was 10.948. For the same molecule, the “Dyspnoea VAS score, mean change” value ([6]; 1.0 μg/Kg/min, 3 hours) was 4.212, the “Dyspnoea VAS score, mean change” value ([6]; 1.0 μg/Kg/min, 6 hours) was 8.637 and the “Dyspnoea VAS score, mean change” value ([6]; 1.0 μg/Kg/min, 12 hours) was 9.076. For the same molecule, the “Dyspnoea VAS score, mean change” value ([6]; 1.0 μg/Kg/min, 24 hours) was 13.332, the “Dyspnoea VAS score, mean change” value ([6]; 1.0 μg/Kg/min, 48 hours) was 10.075 and the “Length of stay, median” value ([7]; 0.5 μg/Kg/min) was 7.0 days. The “Hospital readmission/ED visits to Day 30, count of patients” value ([7]; 0.5 μg/Kg/min (n = 41)) was 4, the “Hospital readmission/ED visits to Day 30, percent of patients” value ([7]; 0.5 μg/Kg/min (n = 41)) was “(9.8%)” and the “Worsening heart failure to day 4, count of patients” value ([7]; 0.5 μg/Kg/min (n = 41)) was 1. The “Worsening heart failure to day 4, percent of patients” value ([7]; 0.5 μg/Kg/min (n = 41)) was “(2.4%)”, the “Length of stay, median” value ([7]; 1.0 μg/Kg/min) was 7.0 days and the “Hospital readmission/ED visits to Day 30, count of patients” value ([7]; 1.0 μg/Kg/min (n = 40)) was 4. The “Hospital readmission/ED visits to Day 30, percent of patients” value ([7]; 1.0 μg/Kg/min (n = 40)) was “(10%)”, the “Worsening heart failure to day 4, count of patients” value ([7]; 1.0 μg/Kg/min (n = 40)) was 3 and the “Worsening heart failure to day 4, percent of patients” value ([7]; 1.0 μg/Kg/min (n = 40)) was “(7.5%)”. The “cardiac troponin absolute values” [8] was “No significant changes”, the “mean change in E/e′ ratio at 24 h” value ([9]; 0.5 μg/kg/min) was −4.55 (4.75) and the “mean change in E/e′ ratio at 24 h” value ([9]; 1.0 μg/kg/min) was −3.16 (2.59). For the same molecule, the “Mortality within the 30-day study period” value ([10]; 1.0 μg/kg/min group, cardiogenic shock) was “One patient died”, the “rate of SAEs” value ([10]; in vivo) was “did not show meaningful differences” and the “rate of injection site reactions” value ([10]; in vivo, iv) was “high”. The “Serious adverse events: Cardiac death” value [10, 11] was 1 number of patients and the “Serious adverse events: Cardiac death, percent of patients” value [10, 11] was “(2.5) %”.
